Columns and labels:
naïve CD4^+ T cells = assay: Naive CD4+ T cells with anti-CD3/anti-CD28 coated beads; type: cell-based, mice
Source text: FIG. 4A-4K: Effect of inosine on T cell differentiation and dependency on classical dendritic cells of ICB therapy efficacy. (a) Scatter plot of untargeted metabolomics data in the serum of anti-CTLA-4 treated, tumor-bearing B.p. monocolonized compared to C.sp. monocolonized and germ-free (GF) mice. Grey circles or dotted grey circles depict inosine or inosine fragments/adducts, respectively. […] (c) Naïve CD4^+ T cells were co-cultured with bone marrow derived dendritic cells and IFN-γ. Quantification of T-bet^+CD3ε^+CD4^+ T cells 48 hours after co-culture in the presence or absence of inosine, A2A receptor inhibitor (ZM241385), cell permeable cAMP (db-cAMP) and protein kinase A inhibitor (RP-8-CPT-CAMPS). (d) Same as (c) without IFN-γ. (e) Representative plot and quantification (left and right panel) of phospho-CREB (Ser133) levels in naïve CD4^+ T cells cultured with anti-CD3/anti-CD28 coated beads for 1 hour in the presence or absence of inosine. (f) Schematic overview of experimental setup to deplete classical dendritic cells during MC38 tumor challenge and anti-CTLA-4 treatment. Intratumoral (g) frequency of CD8^+ T cells (h) IFN-γ^+CD8^+ T cells. (i and j) same as (g and h), but CD4^+ T cells and (k) tumor weight at […]. Data are mean±SEM and pooled from two individual experiments (a-b) n=5-8 samples/group (c-e) 10-15 biological replicates/group (f-k) 10 mice/group. *, P<0.05; **, P<0.01; ***, P<0.001; ****, P<0.0001
FIG. 16A-16J: Context dependent effect of inosine on Th1 T cell differentiation. (a) Naïve CD4^+ T cells were co-cultured with bone marrow derived dendritic cells without IFN-γ. Quantification of T-bet^+CD3e^+CD4^+ T cells 48 hours after co-culture in the presence or absence of inosine and anti-CTLA-4, as indicated. (b) Naïve CD4^+ T cells were cultured anti-CD3/anti-CD28 coated beads at a ratio of 1:1 without IFN-γ for 48 hours. Representative plot and quantification of IL12Rβ2 surface expression on CD4^+ T cells in the presence or absence of inosine (left and right panel). (c) Quantification of T-bet^+CD3e^+CD4^+ T cells 48 hours after co-culture in the presence or absence of inosine, db-cAMP and anti-CTLA-4 as indicated. (d) Naïve, A2AR-deficient CD4^+ T cells were cultured with anti-CD3/anti-CD28 coated beads at a ratio of 1:1 without IFN-γ. Quantification of T-bet^+CD3e^+CD4^+ T cells 48 hours after co-culture in the presence or absence of inosine or db-cAMP (e) Representative plot and quantification (left and right panel) of pCREB expression of anti-CD3/anti-CD28 bead co-cultured CD4^+ T cells in the presence or absence of inosine or db-cAMP 1 hour after stimulation. Analysis through flow cytometry. (f and g) Naïve, wild type CD4^+ T cells were cultured with anti-CD3/anti-CD28 coated beads at a ratio of 1:1. Il12rb2 and Ifng gene transcripts (normalized to Gapdh) were evaluated 24 and 48 hours following inosine (1 mM) stimulation. Expression was normalized to cells treated with medium. Analysis through quantitative PCR assay (h) Naïve CD4^+ T cells were cultured with anti-CD3/anti-CD28 coated beads at a ratio of 1:1 without IFN-γ for 24 hours. Then inosine or vehicle was added at the indicated concentrations for another 48 hours before T cell differentiation and activation was assessed. (i) Adenosine concentrations in the duodenal-, jejunal- or cecal content of B.p. monocolonized mice and in the serum of B.p. or C.sp. monocolonized anti-CTLA-4 treated mice. (j) Naïve CD4^+ T cells were cultured with anti-CD3/anti-CD28 coated beads at a ratio of 1:1 without IFN-γ for 24 hours. Adenosine or was added then in the indicated concentrations for another 48 hours followed by T cell differentiation and activation was assessed through flow cytometry. […]

MC38 tumor cells = assay: MC38 tumors in GF Rag1-deficient mice receiving WT or A2AR-deficient T cells, inosine + anti-CTLA-4 + CpG; type: in vivo; conditions: WT vs A2AR-deficient T cells
Description: FIG. 5A-5L: Inosine promotes Th1 activation and anti-tumor immunity. (a) Schematic overview of experimental setup to assess the effect of inosine on Th1 activation in vivo. (b, c) Representative dot plots and quantification (left and right panel respectively) of T-bet^+IFN-γ^+CD3ε^+ (b) CD8^+ or (c) CD4^+ T cells in the MLN. (d) Schematic overview of experimental setup to assess the effect of inosine on anti-tumor immunity. Upon palpable tumors, mice were treated with 100 μg anti-CTLA-4 i.p. (5 times every 72 hours) and in some groups 20 μg CpG i.p. (5 times every 72 hours). In addition, inosine (300 mg/KG/BW) or PBS was given daily orally (O), through gavage or systemically (S) through i.p. injection. (e) Tumor weight and quantification of IFN-γ^+ cells amongst (f) CD4^+ or (g) CD8^+ cells are shown. (h). Schematic overview to assess the requirement of A2AR signaling for inosine-induced anti-tumor immunity. 1×10^6 MC38 cells (s.c.) and WT or A2AR-deficient 1×10^7 T cells (i.v. 6×10^6 CD4^+ and 4×10^6 CD8^+ cells) were injected. Upon palpable tumors, mice were treated with 100 μg anti-CTLA-4, 20 μg CpG (4 times every 72 hours, both i.p.) and inosine (daily, 300 mg/KG/BW, through gavage). (i) Pictures of tumors are shown at day 20. scale bars: 1 cm. (j) Tumor weight and quantification of IFN-γ^+ in (k) CD8^+ or (l) CD4^+ cells in the tumor are shown. Data are mean±SEM and pooled from two individual experiments (a-l) 10-11 mice/group. *, P<0.05; **, P<0.01; ***, P<0.001.
To evaluate the effect of inosine on Th1 activation, mice received 30 μg CpG, […] EndoFit Ovalbumin (both Invivogen) and 2 μg OVA323-339 (Sigma) i.p. and 24 hours later mice received 300 mg/kg/BW inosine or PBS as a control through i.p. injection. T cell differentiation was assessed 48 hours later. To assess the impact of inosine on tumor development during ICB therapy 1×10^6 cancer cells were injected subcutaneously (s.c.) in the flank of germ-free mice. […]

With `OC[C@H]1O[C@@H](n2cnc3c(O)ncnc32)[C@H](O)[C@@H]1O` [inosine] the “phosphorylation of CREB (Ser133)” value (naïve CD4^+ T cells; 1 hour) was “led to phosphorylation”, the Th1 differentiation (naïve CD4^+ T cells; bead-activated naïve T cells, no DCs) was “enhanced Th1 differentiation, even in the absence of IFN-γ” and the “Il12rb2 and Ifng gene transcription” value (naïve CD4^+ T cells; inosine 1 mM, 24 and 48 hours, quantitative PCR) was “sustained upregulation”. The “Th1 activation, inosine dose response” value (naïve CD4^+ T cells; physiological concentrations observed in sera of B.p. but not C.sp. monocolonized mice) was “sufficient to induce Th1 activation”, the IL12Rβ2 surface expression (naïve CD4^+ T cells; without IFN-γ, 48 hours) was “upregulation of IL12Rβ2” and the “IFN-γ production within tumors” value (MC38 tumor cells) was “WT but not A2AR-deficient T cells displayed increased IFN-γ production within tumors”. For the same compound, the tumor weights (MC38 tumor cells) was “only GF mice receiving WT T cells showed reduced tumor weights” and the anti-CTLA-4/CpG-mediated anti-tumor immunity (MC38 tumor cells; inosine oral) was “enhanced anti-CTLA-4/CpG-mediated anti-tumor immunity in animals that received WT but not A2AR-deficient T cells”.

— US20240181049A1, “HARNESSING THE POWER OF MICROBIOTA AND METABOLITES FOR THE TREATMENT OF CANCER” (UTI LIMITED PARTNERSHIP, priority 2019, published 2024)
